Consider four compounds from patent US12161609B2, “Composition and method for treating autism spectrum disorder (ASD) symptoms of paranoia with self isolation and/or aggression” (priority 2021, dated 2024).

One data set concerns autistic patients. To be noted: oxcarbazepine alone vs. placebo, 2011 to 2021; cited from earlier work.
The subject of data set [1] is ASD aggression toward others or self and paranoia/social isolation. To be noted: for aggression and self-injury: Example 1: ASD person (when on the combination); for aggression and self-injury / paranoia/social isolation behavior: combination dosed twice daily as in TABLE 1; for loss of effectiveness (tachyphylaxis): after two years use.

For `NC(=O)N1c2ccccc2CC(=O)c2ccccc21` [oxcarbazepine], in the data set on autistic patients, the “adverse effects in autistic subjects” value was “so many adverse effects in autistic subjects that they drop out of the study”.

On to `O=C1CCc2ccc(OCCCCN3CCN(c4cccc(Cl)c4Cl)CC3)cc2N1` [aripiprazole], for which, in data set [1] (Example 1: ASD person), the “dyskinesia / tardive dyskinesia and dystonias” value is “developed tardive dyskinesia and dystonias”; the paranoia/social isolation behavior entry is reported as “improvement in paranoia/social isolation behaviors”. The aggression and self-injury entry in data set [1] was “successful alleviation of aggression”. Also, the “drug-induced hallucinations, aggression and paranoia” value in data set [1] (Example 1: within a half hour of taking the drug, after 1 and ½ years of use) was “induced hallucinations, severe aggression and paranoia”. The “loss of effectiveness (tachyphylaxis)” value in data set [1] (summary over the ASD subjects) is on record as “tachyphylactic loss of effectiveness”. For the same compound, in data set [1] (summary over the ASD subjects, long-term use (two years for the antipsychotics)), the “tardive dyskinesia / dystonic side effects” value is “developed tardive dyskinesia”.

For the compound `Cc1nc2n(c(=O)c1CCN1CCC(c3noc4cc(F)ccc34)CC1)CCCC2` [risperidone], in data set [1] (Example 3: adult ASD, combination dosed early morning and after 5:00 pm), the “self-injury behavior, aggression toward others and social isolation symptoms” value is recorded as “could no longer be successfully treated”. Further, in data set [1] (summary over the ASD subjects), the “loss of effectiveness (tachyphylaxis)” value is “tachyphylactic loss of effectiveness”.

In the case of `CNCCC(Oc1ccc(C(F)(F)F)cc1)c1ccccc1` (stereo not drawn) [fluoxetine], in data set [1] (Example 1: ASD person), the “ability to attend school” value is “unable to attend schooling” and the paranoia/social isolation behavior entry was “remained paranoid”. Besides, the aggression and self-injury result in data set [1] is “self-injury slightly decreased”.
